Data as given in patent publication US20250296920A1, “FORMULATIONS COMPRISING N-SUBSTITUTED-DIOXOCYCLOBUTENYLAMINO-3-HYDROXY-PICOLINAMIDE COMPOUNDS AND USES THEREOF” (Pfizer Inc., priority 2024, published 2025).
Blank lines part the entries; values can stand above or below the compound they belong to.

Key:
CXCR2 = target: T1, CXCR2 (Homo sapiens, UniProt P25025); assay: Human neutrophil chemotaxis assay; type: cell-based; details: R = H; read-out: CXCR2 Neutrophil, GRO[…] Chemotaxis IC50
T1 construct: Human neutrophils were purified from freshly drawn human whole blood; endogenous in cells; host or cells: primary human neutrophils from freshly drawn whole blood
T1 sequence (P25025 1-360): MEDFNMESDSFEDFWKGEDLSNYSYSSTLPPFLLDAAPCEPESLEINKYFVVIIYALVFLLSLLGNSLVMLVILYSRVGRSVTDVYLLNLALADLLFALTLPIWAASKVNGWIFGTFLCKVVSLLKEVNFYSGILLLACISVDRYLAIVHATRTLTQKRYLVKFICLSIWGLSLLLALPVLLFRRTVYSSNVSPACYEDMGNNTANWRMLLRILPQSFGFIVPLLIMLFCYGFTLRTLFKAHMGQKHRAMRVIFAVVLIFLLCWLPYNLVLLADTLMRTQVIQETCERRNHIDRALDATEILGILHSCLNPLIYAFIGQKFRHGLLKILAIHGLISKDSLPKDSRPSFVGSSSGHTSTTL
Description: After 30 min, the labeled neutrophils were washed twice in chemotaxis buffer, resuspended as before and used immediately. For the assay, test compounds were tested in a dose-response format to determine IC50. Labeled neutrophils (50 μL) were pre-incubated with diluted test compound (50 μL) for 30 min in a 96-well plate (Greiner). Next, 100 μL of diluted compound was mixed with 100 μL of GROα (Peprotech #300-11, 2 nM) in the bottom portion of the chemotaxis chamber.
The top portion (insert) of the chemotaxis system containing the FluoroBlok porous membrane was then assembled together. 50 μL of the pre-incubated neutrophils were added to the FluoroBlok insert (top portion) and chemotaxis measured by the neutrophils ability to migrate through the membrane towards the specific CXCR2 ligand, GROα.

CCR6 = target: T2, CCR6 (Homo sapiens, UniProt P51684); assay: CCR6+ T cell chemotaxis assay; type: cell-based
T2 construct: Human CD4+CCR6+CXCR3-T cells were isolated from leukopak from healthy donors; endogenous in cells
T2 sequence (P51684 1-374): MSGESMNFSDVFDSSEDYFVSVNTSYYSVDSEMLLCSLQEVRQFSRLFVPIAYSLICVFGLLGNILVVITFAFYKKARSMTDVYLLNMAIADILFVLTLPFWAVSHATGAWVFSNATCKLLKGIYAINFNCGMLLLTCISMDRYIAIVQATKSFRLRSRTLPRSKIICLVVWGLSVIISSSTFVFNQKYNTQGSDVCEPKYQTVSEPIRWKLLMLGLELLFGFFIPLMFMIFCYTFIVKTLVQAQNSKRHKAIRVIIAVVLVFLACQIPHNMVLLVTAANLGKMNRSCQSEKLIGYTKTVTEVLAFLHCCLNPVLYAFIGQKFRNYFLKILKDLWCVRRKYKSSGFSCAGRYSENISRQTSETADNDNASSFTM
Source text: Human CD4+CCR6+CXCR3-T cells were isolated from leukopak from healthy donors using EasySep™ Human Th17 Cell Enrichment Kit. […] Day 4 post activation, Dynabeads were removed from the culture. The activated T cells were maintained at 1-2×10^6 cells/mL for 15 days by feeding fresh growth media when needed.
For IC50 determination, the top and bottom of the chemotaxis chamber contained the same concentration of compound. DMSO was kept constant at 0.1% (v/v) in all wells. The final concentration of CCL20 (Peprotech 300-29A) in the bottom chamber is 0.5 nM. The fully assembled chemotaxis plate was placed in a cell culture incubator at 37° C., 5% CO2 for 1 h. After incubation, the top filter was removed, followed by a quick freeze of the bottom chamber at −80° C. for 1 h. The migrated cells in the bottom chamber were stained with CyQUANT dye (Life Technologies, C7026) for cell number determination.
IC50 values for compounds of the present invention (Table 1a) were determined by the non-linear regression analysis of dose response curves.

IC50 (CXCR2): 42.1 nM | IC50 (CCR6; R = H, read-out: CCR6 T cell, CCL20 Chemotaxis IC50): 19.2 nM
SMILES: CN(C)C(=O)c1nccc(Nc2c(N[C@@H](c3ccn(C)n3)C3(C)CCCC3)c(=O)c2=O)c1O [drawing 157 (R = H)]

SMILES: Cc1nc([C@H](Nc2c(Nc3ccnc(C(=O)N(C)C)c3O)c(=O)c2=O)C2(C)CCCC2)co1 [drawing 159 (R = H)]
T Cell Chemotaxis Selectivity (CCR6; R = H): NS* (Not selective for T cell chemotaxis compared to neutrophil chemotaxis)

SMILES: Cc1cn(C)nc1[C@H](Nc1c(Nc2ccnc(C(=O)N(C)C)c2O)c(=O)c1=O)C1(C)CC1 [Example 20, (R)-4-((2-(((1,4-Dimethyl-1H-pyrazol-3-yl)(1-methylcyclopropyl)methyl)amino)-3,4-dioxocyclobut-1-en-1-yl)amino)-3-hydroxy-N,N-dimethylpicolinamide]
T Cell Chemotaxis Selectivity (CCR6; T cell chemotaxis compared to neutrophil chemotaxis): NS** (Not selective for T cell chemotaxis compared to neutrophil chemotaxis)
